Assay results taken from the NIST ThermoML archive (doi:10.1007/s10765-014-1730-1).

Settings: Vibrating tube method; for mass density: Liquid; for specific volume: Gas

F/C=C\C(F)(F)F [(Z)-1,3,3,3-tetrafluoro-1-propene]
Settings | mass density [kg/m3] | specific volume [m3/kg]
283.15 K, 19923 kPa | 1312.8 | –
283.15 K, 30988 kPa | 1335.2 | –
283.16 K, 188 kPa | 1262.2 | –
283.16 K, 714 kPa | 1263.9 | –
283.16 K, 1728 kPa | 1266.9 | –
283.16 K, 2742 kPa | 1270 | –
283.16 K, 3759 kPa | 1273 | –
283.16 K, 4785 kPa | 1275.9 | –
283.16 K, 5794 kPa | 1278.6 | –
283.16 K, 6808 kPa | 1281.4 | –
283.16 K, 7810 kPa | 1284.1 | –
283.16 K, 8829 kPa | 1286.8 | –
283.16 K, 9831 kPa | 1289.3 | –
283.16 K, 10842 kPa | 1291.8 | –
283.16 K, 11848 kPa | 1294.3 | –
283.16 K, 12862 kPa | 1296.7 | –
283.16 K, 13869 kPa | 1299.3 | –
283.16 K, 14880 kPa | 1301.5 | –
283.16 K, 15887 kPa | 1304 | –
283.16 K, 16901 kPa | 1306.2 | –
283.16 K, 17911 kPa | 1308.5 | –
283.16 K, 18920 kPa | 1310.8 | –
283.16 K, 20928 kPa | 1315.1 | –
283.16 K, 21929 kPa | 1317.3 | –
283.16 K, 22938 kPa | 1319.3 | –
283.16 K, 23940 kPa | 1321.4 | –
283.16 K, 24945 kPa | 1323.4 | –
283.16 K, 25950 kPa | 1325.4 | –
283.16 K, 26964 kPa | 1327.4 | –
283.16 K, 27969 kPa | 1329.6 | –
283.16 K, 28981 kPa | 1331.5 | –
283.16 K, 29981 kPa | 1333.4 | –
283.16 K, 32001 kPa | 1337.1 | –
283.16 K, 33010 kPa | 1339 | –
283.16 K, 34026 kPa | 1340.8 | –
293.14 K, 707 kPa | 1238 | –
293.14 K, 3747 kPa | 1248.2 | –
293.14 K, 6783 kPa | 1257.5 | –
293.14 K, 8789 kPa | 1263.5 | –
293.14 K, 21891 kPa | 1296.5 | –
293.14 K, 22907 kPa | 1298.7 | –
293.14 K, 23918 kPa | 1301 | –
293.14 K, 24927 kPa | 1303.2 | –
293.14 K, 31982 kPa | 1317.6 | –
293.15 K, 202 kPa | 1236.1 | –
293.15 K, 1711 kPa | 1241.3 | –
293.15 K, 2717 kPa | 1244.8 | –
293.15 K, 4772 kPa | 1251.4 | –
293.15 K, 5777 kPa | 1254.5 | –
293.15 K, 7789 kPa | 1260.4 | –
293.15 K, 9806 kPa | 1266.1 | –
293.15 K, 10808 kPa | 1269.1 | –
293.15 K, 11817 kPa | 1271.7 | –
293.15 K, 12827 kPa | 1274.3 | –
293.15 K, 13836 kPa | 1277 | –
293.15 K, 14850 kPa | 1279.6 | –
293.15 K, 15856 kPa | 1282.1 | –
293.15 K, 16856 kPa | 1284.7 | –
293.15 K, 17859 kPa | 1287 | –
293.15 K, 18869 kPa | 1289.6 | –
293.15 K, 19873 kPa | 1292 | –
293.15 K, 20882 kPa | 1294.3 | –
293.15 K, 25932 kPa | 1305.2 | –
293.15 K, 26941 kPa | 1307.2 | –
293.15 K, 27957 kPa | 1309.7 | –
293.15 K, 28963 kPa | 1311.6 | –
293.15 K, 29972 kPa | 1313.7 | –
293.15 K, 30977 kPa | 1315.7 | –
293.15 K, 32993 kPa | 1319.5 | –
293.15 K, 33996 kPa | 1321.6 | –
303.15 K, 82.1 kPa | – | 0.259
303.15 K, 113.7 kPa | – | 0.185
303.15 K, 184.2 kPa | – | 0.111
303.15 K, 190.7 kPa | – | 0.107
303.15 K, 1705 kPa | 1215.3 | –
303.15 K, 3735 kPa | 1222.8 | –
303.15 K, 4759 kPa | 1226.3 | –
303.15 K, 7774 kPa | 1236.5 | –
303.15 K, 8779 kPa | 1239.7 | –
303.15 K, 10782 kPa | 1245.9 | –
303.15 K, 12803 kPa | 1251.9 | –
303.15 K, 13813 kPa | 1254.8 | –
303.15 K, 14822 kPa | 1257.6 | –
303.15 K, 15833 kPa | 1260.3 | –
303.15 K, 16844 kPa | 1263 | –
303.15 K, 17858 kPa | 1265.7 | –
303.15 K, 18870 kPa | 1268.3 | –
303.15 K, 19882 kPa | 1270.9 | –
303.15 K, 20888 kPa | 1273.4 | –
303.15 K, 21903 kPa | 1275.9 | –
303.15 K, 22911 kPa | 1278.3 | –
303.15 K, 23920 kPa | 1280.7 | –
303.15 K, 24935 kPa | 1283 | –
303.15 K, 25951 kPa | 1285.4 | –
303.15 K, 26951 kPa | 1287.7 | –
303.15 K, 27967 kPa | 1289.9 | –
303.15 K, 28968 kPa | 1292.1 | –
303.15 K, 29985 kPa | 1294.3 | –
303.15 K, 30991 kPa | 1296.4 | –
303.15 K, 31993 kPa | 1298.6 | –
303.15 K, 32995 kPa | 1300.6 | –
303.15 K, 34000 kPa | 1302.7 | –
